Data set [1] has as its system non-replicating M. tuberculosis H37Rv_LuxABCDE. Description: Low oxygen recovery assay (LORA), MIC against non-replicating M. tuberculosis. To be noted: for MIC: Mycobacterium tuberculosis; for MIC / MIC against M. tuberculosis H37Rv, LORA: non-replicating M. tuberculosis H37Rv, low oxygen. The class given is cell-based, Mycobacterium tuberculosis.
Data set [2] can be described thus: Cytotoxicity against Vero cells (resazurin). To be noted: African green monkey. Background: Resazurin is reduced to fluorescent resorufin, in cell work by metabolically active cells.
The test system of data set [3] is M. tuberculosis H37Rv (ATCC 27294). Description: Microplate Alamar Blue Assay (MABA), MIC against replicating M. tuberculosis. To be noted: 7 days at 37 °C; for MIC: Mycobacterium tuberculosis, 168 h. The class given is cell-based, Mycobacterium tuberculosis.
Data set [4] concerns Vero cells (ATCC CRL-1586). Kind of data set: Cytotoxicity against Vero cells (resazurin). To be noted: Vero cells, 72 h.
Data set [5] has as its system Vero cells (ATCC CRL-1586). To be noted: African green monkey, 72 h.
Setting [6] is: MIC = lowest concentration reducing fluorescence by 90%.

In brackets after ≈: the same amount, converted by molar mass.

What is called MIC is the least concentration at which growth counts as inhibited. As usually defined, the IC50 is the concentration needed to halve the response being measured. For the compound `OC/C=C/CCCC/C=C/CO` [Compound 5, (2E,8E)-2,8-decadiene-1,10-diol], the MIC in data set [1] was 5.9 µg/mL (≈ 34.7 µM); in data set [3] (setting [6]), 4.3 µg/mL (≈ 25.3 µM); in data set [3] ([…]), less than 10 µg/mL. The compound also came in with a 50% inhibitory concentration (IC50) at 72 h in data set [2] (Vero cells (ATCC CRL-1586)) of 72.9 µg/mL (≈ 428 µM).
On to `CCCCCCCCC/C=C/C(O)C(C)=O` (stereo not drawn) [Compound 9, (E)-1-acetyl-2-dodecene-1-ol], for which the MIC in data set [1] and in data set [3] (setting [6]) was more than 100 µg/mL throughout.
Consider `CC(=O)OC/C=C/CCCC/C=C/CO` [Synthetic tsaokol A, tsaokol A], for which the IC50 at 72 h in data set [2] (Vero cells (ATCC CRL-1586)) was more than 200 µg/mL. In addition, the “Cytotoxicity against Vero Cells IC50” value in data set [4] is recorded as “identical to those of the isolated tsaokol A (3)”. 1.4 µg/mL (≈ 6.59 µM) was the least that counted as inhibitory in data set [3] (setting [6]) (MIC). Further, in data set [5], the “Vero cytotoxicity, percentage in parentheses after the IC50 bound” value is given as 10%.
Consider “(2E,8E)-1-acetyl-2,8-decadiene-1,10-diol [Compound 3]”, for which the “Ratio of non-replicating MIC (LORA) over replicating MIC (MABA)” value in data set [1] (LORA MIC relative to MABA MIC) is given as “only two-fold higher”. In addition, the “MIC against M. tuberculosis H37Rv, LORA” value in data set [1] is reported as 1.4 µg/mL. Moreover, the “Cytotoxicity against Vero Cells IC50” value in data set [4] is recorded as more than 200 µg/mL. The “MIC against M. tuberculosis H37Rv, MABA” value in data set [3] (setting [6]) is recorded as 0.6 µg/mL; in data set [3] ([…]), “lower than 10 µg/mL”.
Turning to `CCCCCCC/C=C/C=O` [Compound 7, (E)-decenal], the MIC in data set [1] and in data set [3] (setting [6]) was more than 100 µg/mL each time.
With `CC(=O)OC/C=C/CC/C=C/COC(C)=O` [Compound 6, (2E,6E)-1,8-diacetoxy-2,6-octadiene], the MIC in data set [1] is more than 100 µg/mL; in data set [3] (setting [6]) it was 26.1 µg/mL (≈ 115 µM); in data set [3] ([…]), more than 20 µg/mL. Also, in data set [2] (Vero cells (ATCC CRL-1586)), the IC50 at 72 h was found to be 76.8 µg/mL (≈ 339 µM).
Turning to `CC(=O)NC[C@H]1CN(c2ccc(N3CCOCC3)c(F)c2)C(=O)O1` [Linezolid, reference compound], the values for the MIC in data set [1] and in data set [3] (setting [6]) were 0.62 µg/mL (≈ 1.84 µM) and 0.16 µg/mL (≈ 0.474 µM), respectively.
`OC/C=C/CCCCCCCO` [Compound 2, (E)-2-decene-1,10-diol]: the minimum inhibitory concentration (MIC) in data set [1] was 95.4 µg/mL (≈ 554 µM); in data set [3] (setting [6]), 29.7 µg/mL (≈ 172 µM); in data set [3] ([…]), more than 20 µg/mL. In data set [2] (Vero cells (ATCC CRL-1586)), this compound displayed an IC50 at 72 h of more than 200 µg/mL. Moreover, the “Vero cytotoxicity, percentage in parentheses after the IC50 bound” value in data set [5] came out at 25%.
On to `NNC(=O)c1ccncc1` [Isoniazid, reference compound], for which the MIC in data set [1] is more than 18 µg/mL; in data set [3] (setting [6]), 0.03 µg/mL (≈ 0.219 µM).
Regarding “(2E,8E)-1,10-diacetyl-2,8-decadiene-1,10-diol [Compound 4]”, the “MIC against M. tuberculosis H37Rv, LORA” value in data set [1] came out at 21.6 µg/mL. In addition, the “Cytotoxicity against Vero Cells IC50” value in data set [4] is on record as 143.6 µg/mL. Further, the “MIC against M. tuberculosis H37Rv, MABA” value in data set [3] (setting [6]) was 1.1 µg/mL; in data set [3] ([…]), “lower than 10 µg/mL”.
As for `C=C[C@](C)(O)CC/C=C(\C)CCC=C(C)C` [Compound 12, (3R)-(E)-nerolidol], the MIC in data set [1] and in data set [3] (setting [6]) was more than 100 µg/mL throughout.
As for `CC(C)=CCC/C(C)=C/CO` [Compound 10, geraniol], the MIC in data set [1] and in data set [3] ([…]) was more than 100 µg/mL in each case.
In the case of `CC(=O)OC/C=C(\C)CCC=C(C)C` [Compound 11, geranyl acetate], the MIC is more than 100 µg/mL in data set [1], 88.6 µg/mL in data set [3] (setting [6]) and more than 20 µg/mL in data set [3] ([…]). The compound further came in with a 50% inhibitory concentration (IC50) at 72 h in data set [2] of more than 200 µg/mL.
Consider `CO[C@H]1/C=C/O[C@@]2(C)Oc3c(C)c(O)c4c(O)c(c(/C=N/N5CCN(C)CC5)c(O)c4c3C2=O)NC(=O)/C(C)=C\C=C\[C@H](C)[C@H](O)[C@@H](C)[C@@H](O)[C@@H](C)[C@H](OC(C)=O)[C@@H]1C` [Rifampicin, reference compound], for which the MIC in data set [1] came to 0.14 µg/mL (≈ 0.17 µM); in data set [3] (setting [6]), 0.025 µg/mL (≈ 0.0304 µM). This compound also returned a half-inhibitory concentration (IC50) at 72 h in data set [2] (Vero cells (ATCC CRL-1586)) of more than 100 µg/mL.
As to `CCCCCCC/C=C/C(O)C(C)=O` (stereo not drawn) [Compound 8, (E)-1-acetyl-2-decene-1-ol], the MIC in data set [1] and in data set [3] (setting [6]) was more than 100 µg/mL throughout.
In the case of “(E)-1-acetyl-8-decene-1,10-diol [Compound 1]”, in data set [1], the “MIC against M. tuberculosis H37Rv, LORA” value came to 61.5 µg/mL. For the same compound, the “Cytotoxicity against Vero Cells IC50” value in data set [4] was more than 200 µg/mL. In addition, the results for the “MIC against M. tuberculosis H37Rv, MABA” value in data set [3] (setting [6]) and in data set [3] ([…]) were 10.2 µg/mL and “lower than 10 µg/mL”, respectively.

The values are drawn from publication PMC9823811, “Anti-Microbial Activity of Aliphatic Alcohols from Chinese Black Cardamom (Amomum tsao-ko) against Mycobacterium tuberculosis H37Rv” (Plants, 2022).
